Reference: patent publication US6914045B2, “Glycopeptide antibiotics” (Wyeth Holdings Corporation, priority 2001, dated 2005)
Values after ≈ are worked out from the molar mass of the structure shown.

Key:
Experiment in all cases: in vitro antibacterial evaluation, MIC by broth dilution
Format in all cases: cell-based
Streptococcus sp. = conditions: broth dilution, 18 hours at 35° C.
Method in brief: (§1)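 Test organisms, which included recent clinical isolates resistant to methicillin, penicillin and/or vancomycin, were inoculated at 5×10^5 CFU/mL into Muller-Hinton II […] containing antibiotic at 64-0.06 μg/mL. Minimum inhibitory concentrations were then read as the lowest level inhibiting growth.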

Enterococcus sp. = conditions: broth dilution, 18 hours at 35° C.
Method in brief: as §1

Escherichia coli = conditions: 18 hours at 35° C.
Method in brief: as §1

Staphylococcus sp. = conditions: broth dilution, 18 hours at 35° C.
Method in brief: as §1

MIC Streptococcus agalactiae (GC 4564) (Streptococcus sp.; Streptococcus agalactiae (GC 4564)): 0.5 µg/mL (≈ 0.361 µM)
MIC Streptococcus pneumoniae (ATCC 6301) (Streptococcus sp.; Streptococcus pneumoniae (ATCC 6301)): 0.12 µg/mL (≈ 0.0867 µM)
MIC Streptococcus pneumoniae (GC 1894) (Streptococcus sp.; Streptococcus pneumoniae (GC 1894)): 0.12 µg/mL (≈ 0.0867 µM)
MIC Streptococcus pneumoniae (GC 4565) (Streptococcus sp.; Streptococcus pneumoniae (GC 4565)): 0.12 µg/mL (≈ 0.0867 µM)
MIC Streptococcus pyogenes (GC 4563) (Streptococcus sp.; Streptococcus pyogenes (GC 4563)): 0.12 µg/mL (≈ 0.0867 µM)
MIC Streptococcus pneumoniae (ATCC 6301) (Streptococcus sp.; strain ATCC 6301): 0.12 µg/mL (≈ 0.0867 µM)
MIC Streptococcus pneumoniae (GC 1894) (Streptococcus sp.; strain GC 1894): 0.12 µg/mL (≈ 0.0867 µM)
MIC Streptococcus pyogenes (GC 4563) (Streptococcus sp.; strain GC 4563): 0.12 µg/mL (≈ 0.0867 µM)
MIC Streptococcus agalactiae (GC 4564) (Streptococcus sp.; strain GC 4564): 0.5 µg/mL (≈ 0.361 µM)
MIC Streptococcus pneumoniae (GC 4565) (Streptococcus sp.; strain GC 4565): 0.12 µg/mL (≈ 0.0867 µM)
MIC Enterococcus avium (GC 4558) (Enterococcus sp.; Enterococcus avium (GC 4558)): 0.5 µg/mL (≈ 0.361 µM)
MIC Enterococcus faecalis (ATCC 29212) (Enterococcus sp.; Enterococcus faecalis (ATCC 29212)): 0.5 µg/mL (≈ 0.361 µM)
MIC Enterococcus faecalis (GC 2242) (Enterococcus sp.; Enterococcus faecalis (GC 2242)): 0.5 µg/mL (≈ 0.361 µM)
MIC Enterococcus faecalis (GC 2691) (Enterococcus sp.; Enterococcus faecalis (GC 2691)): 0.5 µg/mL (≈ 0.361 µM)
MIC Enterococcus faecalis (GC 3059) (Enterococcus sp.; Enterococcus faecalis (GC 3059)): 0.5 µg/mL (≈ 0.361 µM)
MIC Enterococcus faecalis (GC 4552) (Enterococcus sp.; Enterococcus faecalis (GC 4552)): 0.5 µg/mL (≈ 0.361 µM)
MIC Enterococcus faecalis (GC 4553) (Enterococcus sp.; Enterococcus faecalis (GC 4553)): 0.5 µg/mL (≈ 0.361 µM)
MIC Enterococcus faecalis (GC 4554) (Enterococcus sp.; Enterococcus faecalis (GC 4554)): 0.5 µg/mL (≈ 0.361 µM)
MIC Enterococcus faecalis (GC 6189) (Enterococcus sp.; Enterococcus faecalis (GC 6189)): 0.5 µg/mL (≈ 0.361 µM)
MIC Enterococcus faecium (GC 2243) (Enterococcus sp.; Enterococcus faecium (GC 2243)): 0.5 µg/mL (≈ 0.361 µM)
MIC Enterococcus faecium (GC 4556) (Enterococcus sp.; Enterococcus faecium (GC 4556)): 0.5 µg/mL (≈ 0.361 µM)
MIC Enterococcus faecium (GC 4557) (Enterococcus sp.; Enterococcus faecium (GC 4557)): 0.5 µg/mL (≈ 0.361 µM)
MIC Enterococcus faecalis (ATCC 29212) (Enterococcus sp.; strain ATCC 29212): 0.5 µg/mL (≈ 0.361 µM)
MIC Enterococcus faecalis (GC 2242) (Enterococcus sp.; strain GC 2242): 0.5 µg/mL (≈ 0.361 µM)
MIC Enterococcus faecium (GC 2243) (Enterococcus sp.; strain GC 2243): 0.5 µg/mL (≈ 0.361 µM)
MIC Enterococcus faecalis (GC 2691) (Enterococcus sp.; strain GC 2691): 0.5 µg/mL (≈ 0.361 µM)
MIC Enterococcus faecalis (GC 3059) (Enterococcus sp.; strain GC 3059): 0.5 µg/mL (≈ 0.361 µM)
MIC Enterococcus faecalis (GC 4552) (Enterococcus sp.; strain GC 4552): 0.5 µg/mL (≈ 0.361 µM)
MIC Enterococcus faecalis (GC 4553) (Enterococcus sp.; strain GC 4553): 0.5 µg/mL (≈ 0.361 µM)
MIC Enterococcus faecalis (GC 4554) (Enterococcus sp.; strain GC 4554): 0.5 µg/mL (≈ 0.361 µM)
MIC Enterococcus faecium (GC 4556) (Enterococcus sp.; strain GC 4556): 0.5 µg/mL (≈ 0.361 µM)
MIC Enterococcus faecium (GC 4557) (Enterococcus sp.; strain GC 4557): 0.5 µg/mL (≈ 0.361 µM)
MIC Enterococcus avium (GC 4558) (Enterococcus sp.; strain GC 4558): 0.5 µg/mL (≈ 0.361 µM)
MIC Enterococcus faecalis (GC 6189) (Enterococcus sp.; strain GC 6189): 0.5 µg/mL (≈ 0.361 µM)
MIC Escherichia coli (ATCC 25922) (Escherichia coli; strain ATCC 25922): >0.5 µg/mL
MIC Escherichia coli (GC 4559) (Escherichia coli; strain GC 4559): >0.5 µg/mL
MIC Escherichia coli (GC 4560) (Escherichia coli; strain GC 4560): 0.5 µg/mL (≈ 0.361 µM)
MIC Coagulase Negative Staphylococcus (GC 4547) (Staphylococcus sp.): 4 µg/mL (≈ 2.89 µM)
MIC Coagulase Negative Staphylococcus (GC 4548) (Staphylococcus sp.): 4 µg/mL (≈ 2.89 µM)
MIC Coagulase Negative Staphylococcus (GC 4549) (Staphylococcus sp.): 4 µg/mL (≈ 2.89 µM)
MIC Coagulase Negative Staphylococcus (GC 4551) (Staphylococcus sp.): 8 µg/mL (≈ 5.78 µM)
MIC Coagulase Negative Staphylococcus (GC 6257) (Staphylococcus sp.): 2 µg/mL (≈ 1.45 µM)
MIC Staphylococcus aureus (ATCC 29213) (Staphylococcus sp.): 0.5 µg/mL (≈ 0.361 µM)
MIC Staphylococcus aureus (GC 1131) (Staphylococcus sp.): 0.5 µg/mL (≈ 0.361 µM)
MIC Staphylococcus aureus (GC 3051) (Staphylococcus sp.): 0.5 µg/mL (≈ 0.361 µM)
MIC Staphylococcus aureus (GC 3053) (Staphylococcus sp.): 0.5 µg/mL (≈ 0.361 µM)
MIC Staphylococcus aureus (GC 4541) (Staphylococcus sp.): 0.5 µg/mL (≈ 0.361 µM)
MIC Staphylococcus aureus (GC 4542) (Staphylococcus sp.): 0.5 µg/mL (≈ 0.361 µM)
MIC Staphylococcus aureus (GC 4544) (Staphylococcus sp.): 0.5 µg/mL (≈ 0.361 µM)
MIC Staphylococcus aureus (GC 4545) (Staphylococcus sp.): 0.5 µg/mL (≈ 0.361 µM)
MIC Staphylococcus aureus-SMITH (GC 4543) (Staphylococcus sp.): 0.5 µg/mL (≈ 0.361 µM)
MIC Coagulase Negative Staphylococcus (GC 4547) (Staphylococcus sp.; strain GC 4547): 4 µg/mL (≈ 2.89 µM)
MIC Coagulase Negative Staphylococcus (GC 4548) (Staphylococcus sp.; strain GC 4548): 4 µg/mL (≈ 2.89 µM)
MIC Coagulase Negative Staphylococcus (GC 4549) (Staphylococcus sp.; strain GC 4549): 4 µg/mL (≈ 2.89 µM)
MIC Coagulase Negative Staphylococcus (GC 4551) (Staphylococcus sp.; strain GC 4551): 8 µg/mL (≈ 5.78 µM)
MIC Coagulase Negative Staphylococcus (GC 6257) (Staphylococcus sp.; strain GC 6257): 2 µg/mL (≈ 1.45 µM)
MIC Staphylococcus aureus-SMITH (GC 4543) (Staphylococcus sp.; strain SMITH GC 4543): 0.5 µg/mL (≈ 0.361 µM)
MIC Staphylococcus aureus (ATCC 29213) (Staphylococcus sp.; strain ATCC 29213): 0.5 µg/mL (≈ 0.361 µM)
MIC Staphylococcus aureus (GC 1131) (Staphylococcus sp.; strain GC 1131): 0.5 µg/mL (≈ 0.361 µM)
MIC Staphylococcus aureus (GC 3051) (Staphylococcus sp.; strain GC 3051): 0.5 µg/mL (≈ 0.361 µM)
MIC Staphylococcus aureus (GC 3053) (Staphylococcus sp.; strain GC 3053): 0.5 µg/mL (≈ 0.361 µM)
MIC Staphylococcus aureus (GC 4541) (Staphylococcus sp.; strain GC 4541): 0.5 µg/mL (≈ 0.361 µM)
MIC Staphylococcus aureus (GC 4542) (Staphylococcus sp.; strain GC 4542): 0.5 µg/mL (≈ 0.361 µM)
MIC Staphylococcus aureus (GC 4544) (Staphylococcus sp.; strain GC 4544): 0.5 µg/mL (≈ 0.361 µM)
MIC Staphylococcus aureus (GC 4545) (Staphylococcus sp.; strain GC 4545): 0.5 µg/mL (≈ 0.361 µM)
SMILES: CC(c1ccccc1)C1NC(=O)CNC(=O)C(CO)NC(=O)C(C(O)C2CNC(=N)N2C2OC(CO)C(O)C(O)C2O)NC(=O)C(C(O)C2CNC(=N)N2)NC(=O)C(Cc2ccc(OC3OC(CO)C(OC4OC(CO)C(O)C5OC(c6ccccc6)OC45)C(O)C3O)cc2)NC1=O (single isomer, unassigned) [Example 104b, Cyclo[glycyl-β-methylphenylalanyl-O-[4-O-(2,3-O-benzylidenehexopyranosyl)hexopyranosyl]-tyrosyl-3-(2-iminoimidazolidin-4-yl)seryl-3-(3-hexopyranosyl-2-iminoimidazolidin-4-yl)-serylseryl]]
MIC Staphylococcus haemolyticus (GC 4546) (Staphylococcus sp.): 0.5 µg/mL (≈ 0.361 µM)
MIC Staphylococcus haemolyticus (GC 4546) (Staphylococcus sp.; strain GC 4546): 0.5 µg/mL (≈ 0.361 µM)
